Laboratory results as given in ChEMBL document CHEMBL1201862, “PubChem BioAssay data set” (2004).
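Briefly, cells in 96-well plates were exposed to five compound concentrations for 48 h, and endpoints were estimated by linear interpolation. Abbreviation: GI50, concentration required for 50% inhibition of growth.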 Calls of active or inactive are those of the source. No stated cut-off is given here; in the data, active = GI50 up to about 1.1 µM and inactive = higher.

Legend:
Experiment in all cases: DTP human tumour cell line panel, 48 h
[1] = tested on: M14
[2] = tested on: HCC 2998
[3] = tested on: Malme-3M
[4] = tested on: SK-MEL-28
[5] = tested on: SNB-19
[6] = tested on: A498
[7] = tested on: NCI-H226
[8] = tested on: ACHN
[9] = tested on: SN12C
[10] = tested on: SW-620
[11] = tested on: U-251
[12] = tested on: LOX IMVI
[13] = tested on: NCI-H460
[14] = tested on: HOP-62
[15] = tested on: IGROV-1

Measured: GI50

CSCSCC(CO)NC(=O)/C=C/c1c(C)nc(O)nc1O (stereo unspecified)
inactive: [1] > 100 µM | [2] > 100 µM | [3] > 100 µM | [4] > 100 µM | [5] 28.8 µM | [6] > 100 µM | [7] > 100 µM | [8] > 100 µM | [9] > 100 µM | [10] > 100 µM | [11] 64.3 µM | [12] > 100 µM | [13] > 100 µM

Cc1ccc(C)c(N2C(=O)C(=O)C(c3nc4ccccc4o3)/C(=N/N)C2=O)c1 (stereo unspecified)
inactive: [14] > 100 µM | [1] > 100 µM | [2] > 100 µM | [3] > 100 µM | [4] > 100 µM | [5] > 100 µM | [6] > 100 µM | [7] > 100 µM | [8] > 100 µM | [9] > 100 µM | [10] > 100 µM | [11] > 100 µM | [13] > 100 µM | [15] > 100 µM

Cc1c(C(=O)NCCO)[n+]([O-])c2cc(Cl)ccc2[n+]1[O-]
inactive: [14] > 100 µM | [1] > 100 µM | [2] > 100 µM | [3] > 100 µM | [4] > 100 µM | [5] > 100 µM | [6] > 100 µM | [8] > 100 µM | [9] > 100 µM | [10] > 100 µM | [11] > 100 µM | [12] > 100 µM | [13] > 100 µM | [15] > 100 µM

COC(=O)C(CCCC1(c2ccccc2)OCCO1)C(C)=O (stereo unspecified)
inactive: [14] > 100 µM | [1] > 100 µM | [2] > 100 µM | [3] > 100 µM | [4] > 100 µM | [5] > 100 µM | [6] > 100 µM | [7] 40.9 µM | [8] 38.1 µM | [9] > 100 µM | [10] > 100 µM | [11] > 100 µM | [12] > 100 µM | [13] > 100 µM | [15] > 100 µM

COc1ccc(C(=O)C(c2ccc(OC)cc2)C2(O)C(=O)Nc3c(Cl)cc(Cl)cc32)cc1 (stereo unspecified)
inactive: [14] 23.8 µM | [1] 16.9 µM | [2] > 10 µM | [3] 15.5 µM | [4] 22.3 µM | [5] 23.8 µM | [7] 18.4 µM | [8] 22.8 µM | [9] 18.7 µM | [10] 17.6 µM | [11] 33.1 µM | [12] 19.3 µM | [13] 20.7 µM

CC1NOC(=O)C1/N=N/c1cccc(Cl)c1 (stereo unspecified)
inactive: [14] 51.3 µM | [1] 62.2 µM | [2] > 100 µM | [3] 29.7 µM | [4] 43.9 µM | [5] 37.7 µM | [6] 17.3 µM | [7] 32.3 µM | [8] 40.9 µM | [9] 21.7 µM | [10] 10 µM | [11] 25.2 µM | [12] 28.8 µM | [13] 31.2 µM | [15] 40.8 µM

CC1=NN=C(NCCN(C)C)C/C1=C/c1ccccc1Cl
inactive: [14] > 100 µM | [1] 39.4 µM | [2] > 100 µM | [3] 27.6 µM | [4] 59.2 µM | [5] > 100 µM | [6] > 100 µM | [8] > 100 µM | [9] > 100 µM | [10] > 100 µM | [11] > 100 µM | [12] 90.6 µM | [13] > 100 µM | [15] > 100 µM

CCOC(=O)c1ncn2c1[nH]c(=O)c1ccccc12
inactive: [1] > 100 µM | [3] > 100 µM | [4] > 100 µM | [5] > 100 µM | [7] > 100 µM | [8] > 100 µM | [9] > 100 µM | [10] > 100 µM | [11] > 100 µM | [12] > 100 µM | [13] > 100 µM | [15] > 100 µM

O=C1C=C(c2c(O)ccc3ccccc23)c2cc(O)ccc2C1=O
inactive: [14] 20 µM | [1] 16.4 µM | [2] 18.6 µM | [3] 19.2 µM | [4] 20.7 µM | [5] 17.5 µM | [7] 20.9 µM | [8] 17.4 µM | [9] 18.2 µM | [10] 18.2 µM | [11] 14.8 µM | [12] 11.5 µM | [13] 20.3 µM | [15] 13.7 µM

CC(C(=O)n1c2ccccc2c2ccccc21)N(c1ccccc1)c1ccccc1 (stereo unspecified)
inactive: [14] 16.3 µM | [1] 16.7 µM | [2] 16.3 µM | [3] 15.1 µM | [4] 19.1 µM | [5] 45.1 µM | [7] 23.7 µM | [8] 16.6 µM | [9] 19.9 µM | [10] 19.8 µM | [11] 17.8 µM | [12] 16.7 µM | [13] 34.6 µM | [15] 18.3 µM

CC1=C(C(=O)Nc2ccccc2)C(c2ccc([N+](=O)[O-])cc2)C(C(=O)Nc2ccccc2)=C(C)N1
inactive: [14] 39.1 µM | [1] 18.1 µM | [2] 20.2 µM | [3] 34.2 µM | [4] 31.5 µM | [5] 10.4 µM | [6] 26.2 µM | [7] 59.6 µM | [8] 37 µM | [9] 30.5 µM | [10] 15.2 µM | [11] 17.4 µM | [12] 15.2 µM | [13] 21.1 µM | [15] 28.6 µM

O=C1OC(CC(=O)c2ccccc2Cl)C(Cl)=C1Cl (stereo unspecified)
inactive: [14] > 100 µM | [1] > 100 µM | [2] > 100 µM | [3] > 100 µM | [4] > 100 µM | [5] > 100 µM | [7] > 100 µM | [8] > 100 µM | [9] > 100 µM | [10] > 100 µM | [11] > 100 µM | [12] > 100 µM | [13] > 100 µM | [15] > 100 µM

CS/C(=N\C(=S)Nc1ccccc1)Nc1ccccc1
inactive: [14] 27.9 µM | [1] 21.4 µM | [2] 21.7 µM | [3] 15.2 µM | [4] 15 µM | [5] 21.7 µM | [6] 21.9 µM | [7] 18.5 µM | [8] 17.5 µM | [9] 18.3 µM | [10] 23.1 µM | [11] 19.8 µM | [12] 16.7 µM | [13] 12 µM | [15] 16.4 µM

COC1OC(C)C(OC(=O)C(C)(C)C)C(C)(O)C1O (stereo unspecified)
inactive: [14] > 100 µM | [1] > 100 µM | [2] > 100 µM | [3] > 100 µM | [4] > 100 µM | [5] > 100 µM | [6] > 100 µM | [7] > 10 µM | [9] > 100 µM | [10] > 100 µM | [11] > 100 µM | [12] > 100 µM | [13] > 100 µM | [15] > 100 µM

CCN(CC)CC(C(=O)Nc1c(C)cccc1C)/C(C)=N/NC(N)=S (stereo unspecified)
inactive: [14] > 100 µM | [1] > 100 µM | [2] > 100 µM | [3] > 100 µM | [4] > 100 µM | [6] > 100 µM | [7] > 100 µM | [8] > 100 µM | [10] > 100 µM | [11] > 100 µM | [12] > 100 µM | [13] > 100 µM | [15] > 100 µM

Cc1nc2c(n1CC(C)C)C(=O)c1ccccc1C2=O
inactive: [14] 42.1 µM | [1] 61.7 µM | [2] 71.4 µM | [3] 20.6 µM | [4] 67.9 µM | [5] 51.5 µM | [7] > 100 µM | [8] 32.1 µM | [9] 37.1 µM | [10] 41.1 µM | [11] 38.6 µM | [12] 29.3 µM | [13] 23.4 µM | [15] 32.6 µM

Nc1nc(N)c(N=O)c(Nc2ccc(Br)cc2)n1
inactive: [14] 14.6 µM | [1] 16.2 µM | [2] 78.9 µM | [3] 13.3 µM | [4] 16.6 µM | [5] 45.1 µM | [6] 17.6 µM | [7] 32.2 µM | [8] 6.58 µM | [9] 17.8 µM | [10] 33.5 µM | [11] 15.9 µM | [12] 18.2 µM | [13] 26.5 µM | [15] 3.46 µM

COc1ccc(NS(=O)(=O)c2ccc(/N=C3\C=C(Nc4ccc(S(=O)(=O)Nc5ccc(OC)nn5)cc4)C(=O)c4ccccc43)cc2)nn1
inactive: [1] 17.5 µM | [2] 19.6 µM | [3] 19 µM | [4] 17.5 µM | [5] 18.8 µM | [6] 15.3 µM | [7] 19.3 µM | [8] 19.1 µM | [9] 18.1 µM | [10] 18.9 µM | [11] 18 µM | [12] 16.7 µM | [13] 17.7 µM | [15] 23.9 µM

O=C1OC(=O)C2C3CCC(O3)C12 (stereo unspecified)
inactive: [14] > 100 µM | [1] > 100 µM | [2] > 100 µM | [3] > 100 µM | [4] > 100 µM | [5] > 100 µM | [6] > 100 µM | [7] > 100 µM | [8] > 100 µM | [9] > 100 µM | [10] > 100 µM | [11] > 100 µM | [13] > 100 µM | [15] > 100 µM
